# In patent US20250281444A1, “COMPOUND WITH NEW SKELETON OF URSANE TRITERPENOID - ENT-KAURANE DITERPENOID DIMER, AND PREPARATION METHOD THEREOF AND APPLICATION THEREOF” (NANJING UNIVERSITY OF CHINESE MEDICINE, priority 2025, published 2025):
# Like-named read-outs stand apart in the source and are kept apart here.
# Key:
# Format in all cases: cell-based
# [1] = test system: lung cancer cell line A549; settings: for IC50: 72 hours, CCK-8, read-out: IC50 ± SD, A549
# Protocol: (§1) A pancreatic cancer cell line MIA PaCa-2, a colon cancer cell line HT-29, a lung cancer cell line A549, and a liver cancer cell line HepG2 (cell bank of Chinese Academy of Sciences) were cultured in a DMEM culture solution containing 10% fetal bovine serum (Gibco Company) at 37° C. under 5% CO2. HT-29, A549 and HepG2 cell culture media were supplemented with 10% FBS and 1% PSN, and a MIA PaCa-2 cell culture medium was supplemented with 10% FBS, 2.5% HS and 1% PSN.
# (§2) Different volumes of DMEM culture media were added to dilute the compounds into different concentrations. Meanwhile, a DMEM culture medium containing 0.1% DMSO was used as a negative control.
# (§3) Tumor cells were suspended in a culture medium, MIA PaCa-2, HT-29 and HepG2 cells were inoculated into a 96-well plate at a cell density of 8000, A549 cells were inoculated into a 96-well plate at a cell density of 3000 (100 μL/well), and the cells were cultured at 37° C. under 5% CO2 for 24 hours. In a logarithmic growth phase of the tumor cell lines, different concentrations of compounds (0, 0.004, 0.04, 0.4, 4, and 40 μM) were added to culture the cells at 37° C. under 5% CO2 for 72 hours.
# (§4) After 72 hours of interaction between the drugs and the tumor cells, 10 μL of CCK-8 solution was added into each well to incubate the cells in a sterile incubator for 1 hour, and then the solution was taken out to determine an OD value by a microplate reader at a wavelength of 450 nm. IC50 (median inhibitory concentration) values of the compounds were calculated by GraphPad Prism 8 software, and 5-FU and Carboplatin were used as positive controls.
# [2] = test system: colon cancer cell line HT-29; assay: cells; settings: for IC50: 72 hours, CCK-8, read-out: IC50 ± SD, HT-29
# Protocol: as §1, §2, §3, §4
# [3] = test system: liver cancer cell line HepG2; assay: cells; settings: for IC50: 72 hours, CCK-8, read-out: IC50 ± SD, HepG2
# Protocol: as §1, §2, §3, §4
# [4] = test system: Helicobacter pylori H. pylori G27; assay: Determination of MIC (microdilution); settings: 72 hours of culture
# Protocol: (§5) Helicobacter pylori (G27 and HP129) and Candida albicans (SC5314 and C5) both came from Professor Hongkai Bi's laboratory of Nanjing Medical University. Main culture mediums and main reagents: Colombian culture medium, LB culture medium, selective antibiotics (metronidazole and amphotericin B), serum, and the like.
# (§6) Colombian liquid culture medium: 29.0 g of Colombian liquid culture medium was accurately weighed, heated, and dissolved in 1000 mL of double distilled water, and the culture medium was subjected to autoclaved sterilization at 121° C. for 15 minutes after being completely dissolved for later use.
# (§7) Colombian blood agar solid culture medium: 39.0 g of Colombian blood agar solid culture medium was accurately weighed, heated, and dissolved in 1000 mL of double distilled water, and the culture medium was subjected to autoclaved sterilization at 121° C. for 15 minutes after being completely dissolved, naturally cooled to about 50° C. after the autoclaved sterilization, quickly added with 5% sterile deflbrinated sheep blood, mixed evenly, and then poured into a sterile dish while the mixture was hot.
# (§8) Standard strains of Helicobacter pylori were taken out of a refrigerator at −80° C. and placed at room temperature, 200 μL of standard strains were accurately sucked, transferred to a solid culture medium, and spread with an L-shaped glass rod, a culture dish loaded with the strains was put into a culture bag, then an AnaeroPack was put into the culture bag, and the culture bag was quickly sealed and then put into a constant-temperature incubator at 37° C. to culture the strains for 72 hours. After the end of culture, the Helicobacter pylori was identified first, then a bacterial lawn on the solid culture medium was scraped off, and the bacterial lawn was transferred into 50 mL of liquid culture medium to serve as an original bacterial solution.
# (§9) (1) Sample solutions of the compounds 1 and 2 prepared in Embodiment 1 were configured to have a concentration of 2 mg/mL.
# (§10) (2) In preparation by a MIC plate, a first well was added with 173.6 μL of culture medium and then added with 6.4 μL of antibacterial drug, and dilution was carried out by multiple proportions to a 7th well; and an 8th well was not added with the drug, but was reserved with 90 μL of culture medium to serve as a control with bacteria but no drug.
# (§11) (3) In preparation of bacterial solution, the Helicobacter pylori growing at a logarithmic phase on a solid plate was made into a bacterial suspension with a BHI culture medium, an OD600 value of concentration of the bacterial suspension was adjusted to be 0.3 (1×10^8 CFU/mL), and then the bacterial suspension was diluted 10 times to reach 1×10^7 CFU/mL for later use.
# (§12) (4) In inoculation, 10 μL of bacterial solution was added into the 1st to 8th wells (a concentration of the bacterial solution in each well was about 1.0×10^6 CFU/mL). Results were judged after 72 hours of culture. Drug concentrations from the 1st to 7th wells were 64 μg/mL, 32 μg/mL, 16 μg/mL, 8 μg/mL, 4 μg/mL, 2 μg/mL, and 1 μg/mL respectively.
# (§13) (5) In result judgment, a lowest drug concentration capable of completely inhibiting the growth of bacteria in the wells was MIC. The test was only meaningful when the bacteria in the 8th well of the positive control well (without antibiotics) grew obviously. When there was a single drift in a microdilution method, a highest drug concentration capable of inhibiting the growth of bacteria should be recorded. If there were many drifts, the results should not be reported, and the test should be repeated. Each drug was tested repeatedly for 3 times.
# [5] = test system: Helicobacter pylori H. pylori 129; assay: Determination of MIC (microdilution); settings: 72 hours of culture, R = drug-resistant strain
# Protocol: as §5, §6, §7, §8, §9, §10, §11, §12, §13
# [6] = test system: pancreatic cancer cell line MIA PaCa-2; settings: for IC50: 72 hours, CCK-8, read-out: IC50 ± SD, MIA PaCa-2
# Protocol: as §1, §2, §3, §4
# Candida albicans SC5314 = assay: MIC, compound 1 alone and combined with amphotericin B
# Source text: as §5
# (§14) LB culture medium: 15 g/L glucose, 10 g/L yeast extract, 5 g/L peptone, and 10 g/L sodium chloride.
# as §9, §10, §12, §13
# Candida albicans C5 = assay: as above
# Source text: as §5, §14, §9, §10, §12, §13
structure (smiles),measurement,setting,value
"N.N.O=C([O-])C1(C(=O)[O-])CCC1.[Pt+2] [Carboplatin, reference compound]",IC50,[1],> 40 µM
"COC(=O)C12CCC(C)(CC3C(=O)C45C(O)C3CCC4C34COC5(O)C(O)C3C(C)(C)CCC4O)C(C)=C1C1=CCC3C4(C)CC(O)C(O)C(C)(C)C4CCC3(C)C1(C)CC2 (centres unmarked) [Compound 2, Bisicacinol C]","cytotoxic activity in words, HT-29",[2],strong inhibitory activity
same,IC50,[2],33.35 ± 0.06 µM
same,IC50,[3],> 40 µM
same,"MIC, H. pylori G27",[4],16 µg/mL
same,"MIC, H. pylori 129",[5],32 µg/mL
same,"cytotoxic activity in words, A549",[1],strong inhibitory activity
same,IC50,[1],23.1 ± 0.12 µM
same,IC50,[6],> 40 µM
"Cc1ncc([N+](=O)[O-])n1CCO [MTZ, metronidazole, reference compound]",MIC,[4]; Helicobacter pylori,2 µg/mL
same,MIC,[5]; Helicobacter pylori,8 µg/mL
"O=c1[nH]cc(F)c(=O)[nH]1 [5-Fluorouracil, reference compound]",IC50,"[2]; Homo sapiens, HT-29",12.87 ± 0.04 µM
same,IC50,"[3]; Homo sapiens, HepG2",4.82 ± 0.07 µM
"COC(=O)C12CCC(C)(CC3C(=O)C45C(O)C3CCC4C34COC5(O)C(O)C3C(C)(C)CCC4O)C(C)=C1C1=CCC3C4(C)CC(O)C(O)C(C)(C)C4CCC3(C)C1(C)CC2 (centres unmarked) [Compound 1, Bisicacinol B]","cytotoxic activity in words, HT-29",[2],strong activity
same,IC50,[2],14.95 ± 0.14 µM
same,"cytotoxic activity in words, HepG2",[3],strong activity
same,IC50,[3],14.84 ± 0.12 µM
same,"MIC, H. pylori G27",[4],16 µg/mL
same,"MIC, H. pylori 129",[5],32 µg/mL
same,"inhibitory effect on growth in words, used separately","Candida albicans SC5314; Candida albicans SC5314, compound alone",no significant inhibitory effect
same,"Compound 1 MIC, combined use","Candida albicans SC5314; SC5314, combined with AMB",1 µg/mL
same,FICI index after combination,"Candida albicans SC5314; SC5314, compound 1 + AMB",≤0.078
same,"Compound 1 MIC, separate use","Candida albicans SC5314; SC5314, compound 1 alone",>32 µg/mL
same,MIC + 0.5 μg/ml AMB,"Candida albicans SC5314; SC5314, compound 1 with 0.5 μg/ml AMB",1 µg/mL
same,"Compound 1 MIC, combined use","Candida albicans C5; C5, combined with AMB",1 µg/mL
same,FICI index after combination,"Candida albicans C5; C5, compound 1 + AMB",≤0.078
same,"Compound 1 MIC, separate use","Candida albicans C5; C5, compound 1 alone",>32 µg/mL
same,MIC + 0.5 μg/ml AMB,"Candida albicans C5; C5, compound 1 with 0.5 μg/ml AMB",1 µg/mL
same,"inhibitory effect on growth in words, used separately","Candida albicans C5; Candida albicans C5, compound alone",no significant inhibitory effect
same,"cytotoxic activity in words, A549",[1],strong activity
same,IC50,[1],4.2 ± 0.24 µM
same,"cytotoxic activity in words, MIA PaCa-2",[6],strong activity
same,IC50,[6],13.1 ± 0.18 µM
"C[C@@H]1[C@H](O)[C@@H](C)/C=C/C=C/C=C/C=C/C=C/C=C/C=C/[C@H](O[C@@H]2O[C@H](C)[C@@H](O)[C@H](N)[C@@H]2O)C[C@@H]2O[C@](O)(C[C@@H](O)C[C@@H](O)[C@H](O)CC[C@@H](O)C[C@@H](O)CC(=O)O[C@H]1C)C[C@H](O)[C@H]2C(=O)O [AMB, amphotericin B, reference compound]","AMB MIC, separate use","Candida albicans SC5314; SC5314, AMB alone",2 µg/mL
same,"AMB MIC, separate use","Candida albicans C5; C5, AMB alone",2 µg/mL
